pIC50: −log10 of the molar value.
Assays:
[1] = target: T1, human JAK1 (a.a. 837-1142) catalytic domain (Homo sapiens, UniProt P23458); test: In vitro JAK kinase assay (HTRF, phosphorylation of biotinylated peptide), JAK1; type: biochemical; settings: Table A; ATP 1 mM
T1 construct: human JAK1 (a.a. 837-1142); His tag (N); made in house; host or cells: insect cells (baculovirus)
Procedure: Compounds herein were tested for inhibitory activity of JAK targets according to the following in vitro assay described in Park et al., Analytical Biochemistry 1999, 269, 94-104. The catalytic domains of human JAK1 (a.a. 837-1142) and JAK2 (a.a. 828-1132) with an N-terminal His tag were expressed using baculovirus in insect cells and purified. The catalytic activity of JAK1 and JAK2 was assayed by measuring the phosphorylation of a biotinylated peptide. The phosphorylated peptide was detected by homogenous time resolved fluorescence (HTRF). […] For the 1 mM IC50 measurements, ATP concentration in the reactions was 1 mM. Reactions were carried out at room temperature for 1 hour and then stopped with 20 μL 45 mM EDTA, 300 nM SA-APC, 6 nM Eu-Py20 in assay buffer (Perkin Elmer, Boston, Mass.). Binding to the Europium labeled antibody took place for 40 minutes and HTRF signal was measured on a Fusion plate reader (Perkin Elmer, Boston, Mass.). […] Data is indicated as ranges, wherein “+” is less than 5 nM; “++” is 5 nM to 25 nM; “+++” is greater than 25 nM to 100 nM; and “++++” is greater than 100 nM.

[2] = target: T2, JAK2 (a.a. 828-1132) catalytic domain (Homo sapiens, UniProt O60674); test: In vitro JAK kinase assay (HTRF, phosphorylation of biotinylated peptide), JAK2; type: biochemical; settings: Table A; ATP 1 mM
T2 construct: JAK2 (a.a. 828-1132); His tag (N); made in house; host or cells: insect cells (baculovirus)
T2 sequence (O60674 828-1132): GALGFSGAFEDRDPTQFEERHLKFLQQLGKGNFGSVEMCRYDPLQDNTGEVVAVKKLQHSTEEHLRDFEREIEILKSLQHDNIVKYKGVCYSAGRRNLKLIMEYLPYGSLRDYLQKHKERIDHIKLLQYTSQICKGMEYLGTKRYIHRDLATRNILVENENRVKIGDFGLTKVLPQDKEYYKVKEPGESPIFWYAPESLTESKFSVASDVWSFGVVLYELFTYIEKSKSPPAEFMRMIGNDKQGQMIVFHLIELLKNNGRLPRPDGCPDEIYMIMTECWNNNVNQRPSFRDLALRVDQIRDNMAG
Procedure: Compounds herein were tested for inhibitory activity of JAK targets according to the following in vitro assay described in Park et al., Analytical Biochemistry 1999, 269, 94-104. The catalytic domains of human JAK1 (a.a. 837-1142) and JAK2 (a.a. 828-1132) with an N-terminal His tag were expressed using baculovirus in insect cells and purified. The catalytic activity of JAK1 and JAK2 was assayed by measuring the phosphorylation of a biotinylated peptide. The phosphorylated peptide was detected by homogenous time resolved fluorescence (HTRF). […] For the 1 mM IC50 measurements, ATP concentration in the reactions was 1 mM. Reactions were carried out at room temperature for 1 hour and then stopped with 20 μL 45 mM EDTA, 300 nM SA-APC, 6 nM Eu-Py20 in assay buffer (Perkin Elmer, Boston, Mass.). Binding to the Europium labeled antibody took place for 40 minutes and HTRF signal was measured on a Fusion plate reader (Perkin Elmer, Boston, Mass.). See Tables A and B for data related to compounds of the invention (at 1 mM). Data is indicated as ranges, wherein “+” is less than 5 nM; “++” is 5 nM to 25 nM; “+++” is greater than 25 nM to 100 nM; and “++++” is greater than 100 nM.

T1 sequence (P23458 849-1154): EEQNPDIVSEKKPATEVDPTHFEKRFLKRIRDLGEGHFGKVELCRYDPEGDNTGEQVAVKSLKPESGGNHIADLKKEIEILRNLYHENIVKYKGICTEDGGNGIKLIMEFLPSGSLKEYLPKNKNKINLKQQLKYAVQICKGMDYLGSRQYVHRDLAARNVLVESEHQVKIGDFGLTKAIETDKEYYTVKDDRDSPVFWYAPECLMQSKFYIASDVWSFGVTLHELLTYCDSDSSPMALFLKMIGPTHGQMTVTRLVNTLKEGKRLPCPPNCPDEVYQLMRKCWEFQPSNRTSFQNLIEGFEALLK

| pIC50 [1] | pIC50 [2] | Structure (SMILES) |
| --- | --- | --- |
| > 8.30 | 7.60 to 8.30 | N#CCCNC(=O)c1cc(F)cc(OC2CCN(CC(CC#N)n3cc(-c4ncnc5[nH]ccc45)cn3)CC2)c1 (stereo not drawn) [Example 12, N-(2-Cyanoethyl)-3-[(1-{3-cyano-2-[4-(7H-pyrrolo[2,3-d]pyrimidin-4-yl)-1H-pyrazol-1-yl]propyl}piperidin-4-yl)oxy]-5-fluorobenzamide tris(trifluoroacetate)] |
| > 8.30 | > 8.30 | CC(C)(C)NC(=O)c1cc(F)cc(OC2CCN(CC(CC#N)n3cc(-c4ncnc5[nH]ccc45)cn3)CC2)c1 (stereo not drawn) [Example 15, N-(tert-Butyl)-3-[(1-{3-cyano-2-[4-(7H-pyrrolo[2,3-d]pyrimidin-4-yl)-1H-pyrazol-1-yl]propyl}piperidin-4-yl)oxy]-5-fluorobenzamide tris(trifluoroacetate)] |
| > 8.30 | 7.60 to 8.30 | CN(C)C(=O)c1cc(F)cc(OC2CCN(CC(CC#N)n3cc(-c4ncnc5[nH]ccc45)cn3)CC2)c1 (stereo not drawn) [Example 8, 3-[(1-{3-Cyano-2-[4-(7H-pyrrolo[2,3-d]pyrimidin-4-yl)-1H-pyrazol-1-yl]propyl}piperidin-4-yl)oxy]-5-fluoro-N,N-dimethylbenzamide tris(trifluoroacetate)] |
| > 8.30 | 7.60 to 8.30 | N#CCC(CN1CCC(Oc2cc(F)cc(C(=O)NC3CC3)c2)CC1)n1cc(-c2ncnc3[nH]ccc23)cn1 (stereo not drawn) [Example 10, 3-[(1-{3-Cyano-2-[4-(7H-pyrrolo[2,3-d]pyrimidin-4-yl)-1H-pyrazol-1-yl]propyl}piperidin-4-yl)oxy]-N-cyclopropyl-5-fluorobenzamide] |
| > 8.30 | 7.60 to 8.30 | CCNC(=O)c1cc(F)cc(OC2CCN(CC(CC#N)n3cc(-c4ncnc5[nH]ccc45)cn3)CC2)c1 (stereo not drawn) [Example 9, 3-[(1-{3-Cyano-2-[4-(7H-pyrrolo[2,3-d]pyrimidin-4-yl)-1H-pyrazol-1-yl]propyl}piperidin-4-yl)oxy]-N-ethyl-5-fluorobenzamide] |
| > 8.30 | 7.00 to 7.60 | N#CCC(CN1CCC(Oc2cc(F)cc(Cl)c2)CC1)n1cc(-c2ncnc3[nH]ccc23)cn1 (stereo not drawn) [Example 2] |

Continued, compound first:

| Structure (SMILES) | pIC50 [1] | pIC50 [2] |
| --- | --- | --- |
| CN(Cc1cc(F)cc(OC2CCN(CC(CC#N)n3cc(-c4ncnc5[nH]ccc45)cn3)CC2)c1)C1CC1 (stereo not drawn) [Example 21, 4-[4-(3-{[cyclopropyl(methyl)amino]methyl}-5-fluorophenoxy)piperidin-1-yl]-3-[4-(7H-pyrrolo[2,3-d]pyrimidin-4-yl)-1H-pyrazol-1-yl]butanenitrile] | > 8.30 | < 7.00 |
| N#CCC(CN1CCC(Oc2cc(F)cc(F)c2)CC1)n1cc(-c2ncnc3[nH]ccc23)cn1 (stereo not drawn) [Example 1, 4-[4-(3,5-Difluorophenoxy)piperidin-1-yl]-3-[4-(7H-pyrrolo[2,3-d]pyrimidin-4-yl)-1H-pyrazol-1-yl]butanenitrile tris(trifluoroacetate)] | 7.60 to 8.30 | 7.00 to 7.60 |
| C[C@@H]1CCCN1Cc1cc(F)cc(OC2CCN(CC(CC#N)n3cc(-c4ncnc5[nH]ccc45)cn3)CC2)c1 (stereo partly drawn) [Example 28, 4-[4-(3-fluoro-5-{[(2R)-2-methylpyrrolidin-1-yl]methyl}phenoxy)piperidin-1-yl]-3-[4-(7H-pyrrolo[2,3-d]pyrimidin-4-yl)-1H-pyrazol-1-yl]butanenitrile] | > 8.30 | 7.00 to 7.60 |
| N#CCC(CN1CCC(Oc2cc(F)cc(C(=O)N3CCC(F)(F)C3)c2)CC1)n1cc(-c2ncnc3[nH]ccc23)cn1 (stereo not drawn) [Example 19, 4-(4-{3-[(3,3-Difluoropyrrolidin-1-yl)carbonyl]-5-fluorophenoxy}piperidin-1-yl)-3-[4-(7H-pyrrolo[2,3-d]pyrimidin-4-yl)-1H-pyrazol-1-yl]butanenitrile] | > 8.30 | 7.60 to 8.30 |
| N#CCC(CN1CCC(Oc2cc(F)cc(CN3CCCC3)c2)CC1)n1cc(-c2ncnc3[nH]ccc23)cn1 (stereo not drawn) [Example 24, 4-{4-[3-fluoro-5-(pyrrolidin-1-ylmethyl)phenoxy]piperidin-1-yl}-3-[4-(7H-pyrrolo[2,3-d]pyrimidin-4-yl)-1H-pyrazol-1-yl]butanenitrile tetrakis(trifluoroacetate)] | > 8.30 | 7.00 to 7.60 |
| N#CCC(CN1CCC(Oc2cc(F)cc(CN3CCCCC3)c2)CC1)n1cc(-c2ncnc3[nH]ccc23)cn1 (stereo not drawn) [Example 25, 4-{4-[3-fluoro-5-(piperidin-1-ylmethyl)phenoxy]piperidin-1-yl}-3-[4-(7H-pyrrolo[2,3-d]pyrimidin-4-yl)-1H-pyrazol-1-yl]butanenitrile] | > 8.30 | 7.60 to 8.30 |

Reference: patent US9034884B2, “Heterocyclic-substituted pyrrolopyridines and pyrrolopyrimidines as JAK inhibitors” (Incyte Corporation, priority 2010, dated 2015)
